Measurements from ChEMBL document CHEMBL3132814, “Synthesis and biological evaluation of tetrahydropyridinepyrazoles (PFPs) as inhibitors of STAT3 phosphorylation” (2014).
Calls of active or inactive are those of the source. No cut-off for these calls is given here.

How the values were obtained:
MCF7 = experiment: Antiproliferative activity against human MCF7 cells assessed as inhibition of cell proliferation at 100 uM after 2 hrs by MTT assay; assay type: functional; conditions: MCF7, 2 h
HCCLM3 [1] = experiment: Inhibition of CXCL12-induced human HCCLM3 cells migration pretreated at 10 uM for 6 hrs by wound-healing assay; assay type: functional, cell-based
Hep 3B2 [2] = experiment: Antiproliferative activity against human Hep3B cells assessed as inhibition of cell proliferation at 10 to 100 uM by MTT dye uptake assay; assay type: functional, cell-based; conditions: TDE = time-dependent effect
PLC-PRF-5 [3] = experiment: Antiproliferative activity against human PLC/PRF/5 cells assessed as inhibition of cell proliferation after 24 to 72 hrs by MTT dye uptake assay; assay type: functional, cell-based
HepG2 [4] = experiment: Antiproliferative activity against human HepG2 cells assessed as inhibition of cell proliferation at 100 uM after 2 hrs by MTT assay; assay type: functional; conditions: for inhibition at 100 µM: HepG2, 2 h
HCCLM3 [5] = experiment: Inhibition of human HCCLM3 cells migration at 10 uM for 6 hrs by wound-healing assay; assay type: functional, cell-based
[6] = target: Signal transducer and activator of transcription 3 (Homo sapiens) (UniProt P40763); experiment: Inhibition of STAT3-DNA binding in human HepG2 cells after 6 hrs by ELISA based DNA binding assay; assay type: cell-based
[7] = target: Signal transducer and activator of transcription 3 (Homo sapiens) (UniProt P40763); experiment: Inhibition of STAT3 activation in human HepG2 cells assessed as maximal inhibition of phosphorylation at tyrosine 705 at 10 uM at 4 to 6 hrs by Western blot analysis; assay type: cell-based
PLC-PRF-5 [8] = experiment: Antiproliferative activity against human PLC/PRF/5 cells assessed as inhibition of cell proliferation at 10 to 100 uM by MTT dye uptake assay; assay type: functional, cell-based; conditions: TDE = time-dependent effect
Hep 3B2 [9] = experiment: Antiproliferative activity against human Hep3B cells assessed as inhibition of cell proliferation after 24 to 72 hrs by MTT dye uptake assay; assay type: functional, cell-based
HepG2 [10] = experiment: Antiproliferative activity against human HepG2 cells assessed as inhibition of cell proliferation at 10 to 100 uM by MTT dye uptake assay; assay type: functional, cell-based; conditions: TDE = time-dependent effect
Huh-7 [11] = experiment: Antiproliferative activity against human HuH7 cells assessed as inhibition of cell proliferation after 24 to 72 hrs by MTT dye uptake assay; assay type: functional, cell-based
PC-3 = experiment: Antiproliferative activity against human PC3 cells assessed as inhibition of cell proliferation at 10 to 100 uM after 24 to 72 hrs by MTT assay; assay type: functional, cell-based
HepG2 [12] = experiment: Antiproliferative activity against human HepG2 cells assessed as inhibition of cell proliferation after 24 to 72 hrs by MTT dye uptake assay; assay type: functional, cell-based
Huh-7 [13] = experiment: Antiproliferative activity against human HuH7 cells assessed as inhibition of cell proliferation at 10 to 100 uM by MTT dye uptake assay; assay type: functional, cell-based; conditions: TDE = time-dependent effect
[14] = target: Signal transducer and activator of transcription 3 (Homo sapiens) (UniProt P40763); experiment: Inhibition of STAT3 activation in human HepG2 cells assessed as inhibition of phosphorylation at tyrosine 705 at 10 uM by Western blot analysis; assay type: cell-based; conditions: TDE = time-dependent effect
[15] = target: Tyrosine-protein kinase JAK2 (Homo sapiens) (UniProt O60674); experiment: Inhibition of JAk2 activation in human HepG2 cells assessed as inhibition of phosphorylation at 10 uM by Western blot analysis; assay type: cell-based; conditions: TDE = time-dependent effect
HCCLM3 [16] = experiment: Inhibition of human HCCLM3 cells migration at 10 uM for 6 hrs by matrigel invasion assay; assay type: functional, cell-based
[17] = target: Proto-oncogene tyrosine-protein kinase Src (Homo sapiens) (UniProt P12931); experiment: Inhibition of Src kinase activation in human HepG2 cells assessed as inhibition of phosphorylation at 10 uM by Western blot analysis; assay type: cell-based; conditions: TDE = time-dependent effect
HCCLM3 [18] = experiment: Inhibition of CXCL12-induced human HCCLM3 cells migration pretreated at 10 uM for 6 hrs by matrigel invasion assay; assay type: functional, cell-based
[19] = target: Signal transducer and activator of transcription 3 (Homo sapiens) (UniProt P40763); experiment: Inhibition of STAT3-DNA binding in human HepG2 cells at 10 uM after 6 hrs by ELISA based DNA binding assay; assay type: cell-based

Sequence of Signal transducer and activator of transcription 3 (Homo sapiens) (P40763 whole entry): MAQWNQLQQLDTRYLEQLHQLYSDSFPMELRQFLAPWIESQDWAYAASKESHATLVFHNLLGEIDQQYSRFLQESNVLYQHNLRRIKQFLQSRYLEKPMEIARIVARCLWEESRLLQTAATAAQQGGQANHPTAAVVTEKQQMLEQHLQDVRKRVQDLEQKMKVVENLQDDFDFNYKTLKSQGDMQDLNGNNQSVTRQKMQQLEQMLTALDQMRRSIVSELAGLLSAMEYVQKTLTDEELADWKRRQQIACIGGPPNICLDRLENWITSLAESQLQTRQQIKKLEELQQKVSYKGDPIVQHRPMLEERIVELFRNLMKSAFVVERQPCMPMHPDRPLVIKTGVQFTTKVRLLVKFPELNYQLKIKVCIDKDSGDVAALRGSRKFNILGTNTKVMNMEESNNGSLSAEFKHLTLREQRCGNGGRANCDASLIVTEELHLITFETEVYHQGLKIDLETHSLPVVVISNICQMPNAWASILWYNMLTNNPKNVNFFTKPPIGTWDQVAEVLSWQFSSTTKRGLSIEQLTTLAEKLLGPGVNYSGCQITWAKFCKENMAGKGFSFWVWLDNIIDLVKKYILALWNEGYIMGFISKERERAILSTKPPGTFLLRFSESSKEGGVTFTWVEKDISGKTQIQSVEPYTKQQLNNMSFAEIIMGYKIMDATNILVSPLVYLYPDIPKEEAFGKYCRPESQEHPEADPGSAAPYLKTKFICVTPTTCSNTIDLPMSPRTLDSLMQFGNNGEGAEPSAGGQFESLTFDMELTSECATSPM
Sequence of Tyrosine-protein kinase JAK2 (Homo sapiens) (O60674 whole entry): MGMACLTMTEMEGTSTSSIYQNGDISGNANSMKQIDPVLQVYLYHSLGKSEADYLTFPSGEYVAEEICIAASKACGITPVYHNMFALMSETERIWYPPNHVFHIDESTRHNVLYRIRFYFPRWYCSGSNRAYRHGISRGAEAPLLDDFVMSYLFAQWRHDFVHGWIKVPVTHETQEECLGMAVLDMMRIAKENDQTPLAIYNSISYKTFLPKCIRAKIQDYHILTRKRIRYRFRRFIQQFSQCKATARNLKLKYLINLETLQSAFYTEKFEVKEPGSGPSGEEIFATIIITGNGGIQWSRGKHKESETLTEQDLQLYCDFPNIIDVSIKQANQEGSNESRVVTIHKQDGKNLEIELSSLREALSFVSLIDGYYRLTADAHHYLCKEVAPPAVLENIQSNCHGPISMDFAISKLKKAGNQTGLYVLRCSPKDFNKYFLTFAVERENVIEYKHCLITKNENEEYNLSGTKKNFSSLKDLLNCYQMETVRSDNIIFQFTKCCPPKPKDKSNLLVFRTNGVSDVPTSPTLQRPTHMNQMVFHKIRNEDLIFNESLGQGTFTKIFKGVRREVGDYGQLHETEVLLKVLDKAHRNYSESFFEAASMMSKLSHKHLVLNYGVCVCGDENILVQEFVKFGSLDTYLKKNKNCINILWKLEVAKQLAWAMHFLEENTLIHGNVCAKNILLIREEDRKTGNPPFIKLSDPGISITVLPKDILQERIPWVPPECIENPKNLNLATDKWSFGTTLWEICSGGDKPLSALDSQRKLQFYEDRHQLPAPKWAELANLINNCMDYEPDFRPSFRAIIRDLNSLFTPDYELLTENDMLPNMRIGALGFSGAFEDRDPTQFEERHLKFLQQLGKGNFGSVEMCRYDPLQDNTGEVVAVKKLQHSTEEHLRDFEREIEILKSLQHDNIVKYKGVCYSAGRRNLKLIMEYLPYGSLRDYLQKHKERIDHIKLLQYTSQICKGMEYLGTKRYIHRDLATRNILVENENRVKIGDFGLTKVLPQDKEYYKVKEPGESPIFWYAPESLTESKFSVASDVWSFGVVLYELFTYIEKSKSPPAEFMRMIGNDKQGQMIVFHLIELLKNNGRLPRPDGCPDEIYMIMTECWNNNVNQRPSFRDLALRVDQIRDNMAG
Sequence of Proto-oncogene tyrosine-protein kinase Src (Homo sapiens) (P12931 2-536 limits assumed): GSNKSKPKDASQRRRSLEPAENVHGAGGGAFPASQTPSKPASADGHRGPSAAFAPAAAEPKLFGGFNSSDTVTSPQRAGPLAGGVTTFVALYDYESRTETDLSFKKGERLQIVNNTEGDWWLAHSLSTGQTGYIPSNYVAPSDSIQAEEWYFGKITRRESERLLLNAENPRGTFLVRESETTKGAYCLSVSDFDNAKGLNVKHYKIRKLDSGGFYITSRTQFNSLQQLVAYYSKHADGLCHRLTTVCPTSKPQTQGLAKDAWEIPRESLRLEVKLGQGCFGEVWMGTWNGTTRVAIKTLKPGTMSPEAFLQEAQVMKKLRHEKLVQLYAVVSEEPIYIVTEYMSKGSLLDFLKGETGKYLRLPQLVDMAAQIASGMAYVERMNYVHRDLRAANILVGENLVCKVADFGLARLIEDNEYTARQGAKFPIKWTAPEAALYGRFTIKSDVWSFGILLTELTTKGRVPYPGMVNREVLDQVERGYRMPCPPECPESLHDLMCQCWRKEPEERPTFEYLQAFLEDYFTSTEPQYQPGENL

SMILES | inhibition at 100 µM (MCF7) | inhibition (Hep 3B2 [2]) | inhibition (PLC-PRF-5 [3]) | inhibition at 100 µM (HepG2 [4]) | inhibition (PLC-PRF-5 [8]) | inhibition (Hep 3B2 [9]) | inhibition (HepG2 [10]) | inhibition (Huh-7 [11]) | inhibition (HepG2 [12]) | inhibition (Huh-7 [13]) | inhibition (HepG2 [4]) | further results
C=CCN1Cc2c(nn(-c3ccc(Cl)cc3Cl)c2NC(=O)Nc2ccccc2)C(F)(F)C1c1ccc(OC)cc1 (stereo not given) | 77.4% | tde | Dose-dependent effect | 80% | tde | Dose-dependent effect | tde | Dose-dependent effect | Dose-dependent effect | tde | – | inhibition (HCCLM3 [1]): Active; inhibition (HCCLM3 [5]): Active; inhibition [6]: Dose-dependent effect; inhibition [7]: Active; inhibition (PC-3): inactive; inhibition [14]: tde; inhibition [15]: tde; inhibition (HCCLM3 [16]): Active; inhibition [17]: tde; inhibition (HCCLM3 [18]): Active
C=CCN1Cc2c(nn(-c3ccc(Cl)cc3Cl)c2NS(=O)(=O)c2ccccc2)C(F)(F)C1c1ccc(OC)cc1 (stereo not given) | 85.3% | – | – | – | – | – | – | – | – | – | inactive | –
C=CCN1Cc2c(nn(-c3ccc(Cl)cc3Cl)c2NC(=S)Nc2ccc(C(F)(F)F)cc2)C(F)(F)C1c1ccc(OC)cc1 (stereo not given) | 84.1% | tde | Dose-dependent effect | 85.1% | tde | Dose-dependent effect | tde | Dose-dependent effect | Dose-dependent effect | tde | – | inhibition [19]: Active
C=CCN1Cc2c(nn(-c3ccc(Cl)cc3Cl)c2NS(=O)(=O)c2ccc(F)cc2)C(F)(F)C1c1ccc(OC)cc1 (stereo not given) | 78.8% | – | – | – | – | – | – | – | – | – | inactive | –
